Assay results reported in ChEMBL document CHEMBL1145215, “Design, synthesis, and biological evaluation of achiral analogs of duocarmycin SA” (Bioorg Med Chem Lett, 2005).

Legend:
[1] = test system: LS174T; test: Cytotoxicity against LS174T (human colon carcinoma )cells; format: functional, cell-based
[2] = test system: K562; test: Cytotoxicity was determined against K562 (chronic human myeloid leukemia )cells; format: functional, cell-based

| SMILES | IC50 [1] | IC50 [2] |
| --- | --- | --- |
| COc1cc2cc(C(=O)Nc3cc(O)ccc3CCCl)[nH]c2c(OC)c1OC | 13800 nM | 1470 nM |
| COC(=O)c1[nH]c2c(O)cc(NC(=O)c3cc4cc(NC(=O)c5cc6ccccc6o5)ccc4[nH]3)c(CCCl)c2c1C(=O)OC | 4 nM | 25 nM |
| COC(=O)c1[nH]c2c(O)cc(NC(=O)c3cc4cc(OC)c(OC)c(OC)c4[nH]3)c(CCCl)c2c1C(=O)OC | 4 nM | 25 nM |
